PMC11195807, “Development of a multi-targeted chemotherapeutic approach based on G-quadruplex stabilisation and carbonic anhydrase inhibition” (Journal of Enzyme Inhibition and Medicinal Chemistry, 2024)
Structures can show the parent of a compound that is named as a salt.

Columns and labels:
GQ structures = assay: BG4 immunofluorescence of GQ foci, HeLa cells in normoxia; type: cell-based; conditions: 24 h, 35.0 µM S-4,0, 40.0 µM C-4,2, 37.5 µM C-5,2, 2 µM RHPS4, over DMSO
Excerpt: After measuring the viability of HeLa cells upon treatment with the newly synthesised MTDLs mentioned above, we probed the capability of the three most cytotoxic ones (S-4,0, C-4,2, and C-5,2) to affect the formation of GQ structures by immunofluorescence (IF) microscopy, using the BG4 antibody that selectively recognises the GQ structures. As it can be noticed in Figure 6, the fluorescence intensity of the total number of GQ foci increased by around 30% after treatment with both the coumarin derivative C-4,2 and the reference GQ binder RHPS4, whereas it was not affected by S-4,0 and C-5,2. […] On the contrary, the levels of GQ structures were influenced neither by the treatment with the sulphonamide S-4,0 nor by the coumarin C-5,2, despite their ability to thermally stabilise some GQ-forming sequences in vitro.
Figure 6. (A) Representative fields showing G4 foci formation detected by immunofluorescence in HeLa cells treated for 24 h with 35.0 µM S-4,0, 40.0 µM C-4,2, and 37.5 µM C-5,2 or an equivalent amount of vehicle (0.1% DMSO). As a positive control, cells were treated with 2 µM RHPS4 (a well-established GQ ligand)[68] for 24 h. Scale bar: 10 µm. Upper panels: the merged channels of BG4-stained GQ structures (magenta) and Hoechst-counterstained nuclei (grey) are reported. Lower panels: enlargements from the pictures in the upper panels. (B) Quantitative analysis of the fluorescence intensity of the total number of GQ foci. An average of 50 cells were screened for each condition and the results are expressed as a fold change of fluorescence intensity (anti-GQ signal) over the negative control (DMSO). Histograms show the mean ± SD of three independent experiments. The statistical significance was calculated using a one-way ANOVA test on GraphPad Prism 8.0.2 (ns: not significant, **: p < 0.01).
For the IF experiments in the presence of normal oxygen levels, HeLa cells were seeded on sterile coverslips, in a 24-well plate, at a density of 90,000 cells per well, and incubated overnight. Then, cells were treated with a sublethal concentration of each investigated MTDL or an equivalent amount of vehicle (0.1% DMSO), for 24 h. As positive control, cells were exposed for 24 h to 2 µM RHPS4. As regards the IF experiments under hypoxic conditions, HeLa were seeded on sterile coverslips, in a 24-well plate, at a density of 50,000 cells per well, and incubated overnight. […] From there, the cellular and nuclear foci were segmented, and their number or fluorescence intensity was quantified by using the Image Analysis package of ZEISS ZEN 3.1 software.

SMILES | increase of fluorescence intensity of the total number of GQ foci (GQ structures) | melting point
COS(=O)(=O)[O-].Cc1cc2c3c([n+](C)c4ccc(F)cc4c3c1)-c1cc(F)ccc1N2C [RHPS4, reference compound] | around 30% | 
COc1ccc2cc3[n+](cc2c1OCc1cn(CCCCCOc2ccc4ccc(=O)oc4c2)nn1)CCc1cc2c(cc1-3)OCO2 (as salt: phosphate) [Compound 44, 10-Methoxy-9-((1–(5-((2-oxo-2H-chromen-7-yl)oxy)pentyl)-1H-1,2,3-triazol-4-yl)methoxy)-5,6-dihydro-[1,3]dioxolo[4,5-g]isoquinolino[3,2-a]isoquinolin-7-ium hexafluorophosphate] |  | 171 to 173 °C
COc1ccc2cc3[n+](cc2c1OCCn1cc(COc2ccc(S(N)(=O)=O)cc2)nn1)CCc1cc2c(cc1-3)OCO2 (as salt: phosphate) [Compound 27, 10-Methoxy-9–(2-(4-((4-sulfamoylphenoxy)methyl)-1H-1,2,3-triazol-1-yl)ethoxy)-5,6-dihydro-[1,3]dioxolo[4,5-g]isoquinolino[3,2-a]isoquinolin-7-ium hexafluorophosphate] |  | 183 to 185 °C
